Read-outs that look alike come from different tables or passages of the source.
Key:
[1] = tested on: newly diagnosed patients in the chronic phase of CML; details: cited from earlier work; for annual rate of progression (resulting in death): IRIS study
[2] = tested on: Ba/F3 cells transfected to express Bcr-Abl Wild-type p210+IL-3; assay: cells; details: Mus musculus, BaF3, read-out: Proliferation IC50
[3] = tested on: Ba/F3 cells transfected to express Bcr-Abl Wild-type p210; assay: cells; details: Mus musculus, BaF3, read-out: Proliferation IC50
[4] = tested on: Ba/F3 cells transfected to express Bcr-Abl M237I (p185); assay: cells; details: Mus musculus, BaF3, read-out: Proliferation IC50
[5] = tested on: imatinib-resistant BCR-ABL mutants; details: number of mutants / mutants tested; Table 1
T315I mutant = details: Table 1
[6] = tested on: Ba/F3 cells transfected to express Bcr-Abl L248V (p185); assay: cells; details: Mus musculus, BaF3, read-out: Proliferation IC50
[7] = tested on: Ba/F3 cells transfected to express Bcr-Abl G250A (p185); assay: cells; details: Mus musculus, BaF3, read-out: Proliferation IC50
[8] = tested on: Ba/F3 cells transfected to express Bcr-Abl G250E (p185); assay: cells; details: Mus musculus, BaF3, read-out: Proliferation IC50
[9] = tested on: Ba/F3 cells transfected to express Bcr-Abl G250V (p185); assay: cells; details: Mus musculus, BaF3, read-out: Proliferation IC50
[10] = tested on: Ba/F3 cells transfected to express Bcr-Abl Y253H (p185); assay: cells; details: Mus musculus, BaF3, read-out: Proliferation IC50
[11] = tested on: Ba/F3 cells transfected to express Bcr-Abl E255D (p185); assay: cells; details: Mus musculus, BaF3, read-out: Proliferation IC50
[12] = tested on: Ba/F3 cells transfected to express Bcr-Abl E255K (p185); assay: cells; details: Mus musculus, BaF3, read-out: Proliferation IC50
[13] = tested on: Ba/F3 cells transfected to express Bcr-Abl E255K (p210); assay: cells; details: Mus musculus, BaF3, read-out: Proliferation IC50
[14] = tested on: Ba/F3 cells transfected to express Bcr-Abl E255V (p210); assay: cells; details: Mus musculus, BaF3, read-out: Proliferation IC50
[15] = tested on: Ba/F3 cells transfected to express Bcr-Abl E275K (p185); assay: cells; details: Mus musculus, BaF3, read-out: Proliferation IC50
[16] = tested on: Ba/F3 cells transfected to express Bcr-Abl E281K (p185); assay: cells; details: Mus musculus, BaF3, read-out: Proliferation IC50
[17] = tested on: Ba/F3 cells transfected to express Bcr-Abl K285N (p185); assay: cells; details: Mus musculus, BaF3, read-out: Proliferation IC50
[18] = tested on: Ba/F3 cells transfected to express Bcr-Abl E292K (p210); assay: cells; details: Mus musculus, BaF3, read-out: Proliferation IC50
[19] = tested on: Ba/F3 cells transfected to express Bcr-Abl F311V (p185); assay: cells; details: Mus musculus, BaF3, read-out: Proliferation IC50
[20] = tested on: Ba/F3 cells transfected to express Bcr-Abl T315I (p210); assay: cells; details: Mus musculus, BaF3, read-out: Proliferation IC50
[21] = tested on: Ba/F3 cells transfected to express Bcr-Abl F317C (p185); assay: cells; details: Mus musculus, BaF3, read-out: Proliferation IC50
[22] = tested on: Ba/F3 cells transfected to express Bcr-Abl F317L (p210); assay: cells; details: Mus musculus, BaF3, read-out: Proliferation IC50
[23] = tested on: Ba/F3 cells transfected to express Bcr-Abl F317V (p185); assay: cells; details: Mus musculus, BaF3, read-out: Proliferation IC50
[24] = tested on: Ba/F3 cells transfected to express Bcr-Abl E355A (p185); assay: cells; details: Mus musculus, BaF3, read-out: Proliferation IC50
[25] = tested on: Ba/F3 cells transfected to express Bcr-Abl E355G (p185); assay: cells; details: Mus musculus, BaF3, read-out: Proliferation IC50
[26] = tested on: Ba/F3 cells transfected to express Bcr-Abl F359C (p185); assay: cells; details: Mus musculus, BaF3, read-out: Proliferation IC50
[27] = tested on: Ba/F3 cells transfected to express Bcr-Abl F359V (p185); assay: cells; details: Mus musculus, BaF3, read-out: Proliferation IC50
[28] = tested on: Ba/F3 cells transfected to express Bcr-Abl A380S (p185); assay: cells; details: Mus musculus, BaF3, read-out: Proliferation IC50
[29] = tested on: Ba/F3 cells transfected to express Bcr-Abl L387F (p185); assay: cells; details: Mus musculus, BaF3, read-out: Proliferation IC50
[30] = tested on: Ba/F3 cells transfected to express Bcr-Abl M388L (p185); assay: cells; details: Mus musculus, BaF3, read-out: Proliferation IC50
[31] = tested on: Ba/F3 cells transfected to express Bcr-Abl F486S (p210); assay: cells; details: Mus musculus, BaF3, read-out: Proliferation IC50
KBM5 = tested on: KBM5; parameters: method as in Golemovic et al, 2005; details: KBM5 cell line; ref Golemovic et al, 2005; cited from earlier work
KBM7 = tested on: KBM7; parameters: method as in Golemovic et al, 2005; details: KBM7 cell line; ref Golemovic et al, 2005; cited from earlier work
[32] = parameters: method as in Kantarjian et al, 2006; details: patients receiving 400 mg b.i.d.; ref Kantarjian et al, 2006; cited from earlier work
[33] = tested on: imatinib-resistant CML mouse models; parameters: method as in Weisberg et al, 2005; details: ref Weisberg et al, 2005; cited from earlier work
[34] = tested on: imatinib-resistant CML patients and Ph+ ALL patients; details: cited from earlier work; for CML patients who have responded: early-phase clinical findings
[35] = tested on: mice injected with BCR-ABL-transformed haematopoietic cell lines or primary marrow cells; details: ref Weisberg et al, 2005; cited from earlier work
[36] = newly diagnosed chronic-phase patients, ref Simonsson, 2005
[37] = accelerated phase CML patients, ref Kantarjian et al, 2006
[38] = blast-phase CML patients, ref Kantarjian et al, 2006
[39] = chronic phase CML patients, ref Kantarjian et al, 2006

## Cc1ccc(NC(=O)c2ccc(CN3CCN(C)CC3)cc2)cc1Nc1nccc(-c2cccnc2)n1 [Imatinib]
[1]; after 1 year of therapy
  annual rate of progression (resulting in death): 3.4%
[1]; after 2 years of therapy
  annual rate of progression (resulting in death): 7.5%
[1]; after 3 years of therapy
  annual rate of progression (resulting in death): 4.8%
[1]; after 4 years of therapy
  annual rate of progression (resulting in death): 1.5%
[1]; [36]
  complete cytogenetic responses: 86%
  complete haematologic remissions: 98%

## Cc1cn(-c2cc(NC(=O)c3ccc(C)c(Nc4nccc(-c5cccnc5)n4)c3)cc(C(F)(F)F)c2)cn1 [AMN107]
[2]
  IC50: > 10 µM
[3]
  IC50: 25 ± 1 nM
[4]
  IC50: 43 ± 8.7 nM
[5]
  imatinib-resistant BCR-ABL mutants against which activity is maintained: 32/33
T315I mutant
  activity against the T315I mutant: no significant activity
[6]
  IC50: 102 ± 13 nM
[7]
  IC50: 65 ± 5.6 nM
[8]
  IC50: 145 ± 32 nM
[9]
  IC50: 19 ± 1.4 nM
[10]
  IC50: 700 ± 116 nM
[11]
  IC50: 27 ± 3.1 nM
[12]
  IC50: 308 ± 42 nM
[13]
  IC50: 548 ± 72 nM
[14]
  IC50: 791 ± 67 nM
[15]
  IC50: 44 ± 17.1 nM
[16]
  IC50: 40 ± 9.8 nM
[17]
  IC50: 57 ± 12 nM
[18]
  IC50: 81 ± 8 nM
[19]
  IC50: 155 ± 31 nM
[20]
  IC50: > 10 µM
[21]
  IC50: 20 ± 3.1 nM
[22]
  IC50: 91 ± 6.5 nM
[23]
  IC50: 28 ± 4 nM
[24]
  IC50: 35 ± 6.7 nM
[25]
  IC50: 47 ± 8 nM
[26]
  IC50: 258 ± 61 nM
[27]
  IC50: 161 ± 61 nM
[28]
  IC50: 164 ± 27 nM
[29]
  IC50: 46 ± 7.2 nM
[30]
  IC50: 18 ± 2.6 nM
[31]
  IC50: 75 ± 7 nM
KBM5
  times more potent than imatinib: 43 times
KBM7
  times more potent than imatinib: 60 times
[32]
  apparent half-life: 15 h
  mean peak plasma level: 3.6 µM
  mean trough plasma level: 1.7 µM
[33]
  survival: prolong survival
[34]; Phase I, 50–1200 mg day−1 for up to 385 days, ref Kantarjian et al, 2006
  maximum tolerated dose: 600 mg b.i.d.
[34]; [37]
  cytogenetic responses: 48%
  haematological responses: 72%
[34]; [38]
  cytogenetic responses: 27%
  haematological responses: 39%
[34]; [39]
  cytogenetic responses: 53%
  haematological responses: 92%
[34]; early, chronic-phase patients
  CML patients who have responded: over 90%
[34]; of 13 Ph+ ALL patients, ref Kantarjian et al, 2006
  imatinib-resistant Ph+ ALL patients who responded: Two
[34]; patients with advanced disease
  CML patients who have responded: Greater than 70%
[35]
  survival of mice: prolong the survival
